The text below walks through data of ChEMBL document CHEMBL1201862, “PubChem BioAssay data set” (2004).

Among the test systems are MDA-MB-231; CAKI-1; NCI-H23; A549; OVCAR-5; A498; K562; LOX IMVI; COLO 205; NCI-H460; MCF7; MDA-MB-435; SK-MEL-5; MDA-N; HCT-15; SF-268; Malme-3M; Hs-578T; HL-60; IGROV-1.
What all share (experiment): DTP human tumour cell line panel, 48 h

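Following 48 hours of exposure in 96-well plates, responses at five concentrations were used to interpolate endpoints linearly. GI50 marks 50% less growth.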 Activity calls are given as the source filed them. Cut-off read from the data, not from the text of the source: active = GI50 up to about 1.1 µM and inactive = higher. Where only a bound is given, the exact number is not on record here.

As for `Cc1ccccc1C1OC1C(=O)c1ccccc1N` (stereo not given), the GI50 (commonly the concentration at which growth is held to half of that of the control) in the experiment with MDA-MB-231 was 31.6 µM (inactive); in the experiment on CAKI-1, 45.8 µM (inactive); in the experiment with NCI-H23, 38.6 µM (inactive); in the experiment with A549 it was 48 µM (inactive); in the experiment with OVCAR-5, > 100 µM (inactive); in the experiment on A498, > 100 µM (inactive). For the same compound, the GI50 with K562 was 56.8 µM (inactive); with LOX IMVI, 34.9 µM (inactive); in the experiment on COLO 205 it was 87.3 µM (inactive); in the experiment on NCI-H460 it was 63.8 µM (inactive); with MCF7, 55.3 µM (inactive); in the experiment on MDA-MB-435 it was 20.7 µM (inactive). In addition, the GI50 was 44.5 µM (inactive) in the experiment on SK-MEL-5, 14.1 µM (inactive) with MDA-N, 53.3 µM with HCT-15 and > 100 µM (inactive) with SF-268.

In the case of `C/C=C1\CN(C(=O)OC(C)(C)C)C1C(=O)OC(C)(C)C` (stereo not given), the GI50 with CAKI-1, in the experiment with NCI-H23, in the experiment with A549, in the experiment on OVCAR-5, in the experiment with A498 and in the experiment with Malme-3M was > 100 µM (inactive) throughout. In addition, the GI50 with K562 is > 100 µM (inactive); in the experiment with Hs-578T, 27.7 µM (inactive); in the experiment with HL-60, 21.3 µM (inactive); in the experiment with LOX IMVI, > 100 µM (inactive); with COLO 205, > 100 µM (inactive); with NCI-H460, > 100 µM (inactive). In addition, the GI50 in the experiment on MCF7 was > 100 µM (inactive); in the experiment on MDA-MB-435, > 100 µM (inactive); in the experiment with SK-MEL-5, > 100 µM (inactive); in the experiment on MDA-N, > 100 µM (inactive); with IGROV-1 it was > 100 µM (inactive); in the experiment on HCT-15, above 100 µM. In the experiment with SF-268, the GI50 is > 100 µM (inactive).

Consider `CC1(C)OC(CCO)CN1C(=O)OCc1ccccc1` (stereo not given), for which the GI50 in the experiment on MDA-MB-231, in the experiment on CAKI-1, in the experiment with NCI-H23, with A549, in the experiment with OVCAR-5 and in the experiment on A498 was > 100 µM (inactive) throughout. The GI50 with Malme-3M, in the experiment with K562, with HL-60, in the experiment with LOX IMVI, in the experiment on COLO 205 and in the experiment with NCI-H460 was > 100 µM (inactive) each time. Further, the GI50 in the experiment with MCF7 is > 100 µM (inactive); in the experiment on MDA-MB-435, > 100 µM (inactive); in the experiment on SK-MEL-5, > 100 µM (inactive); with MDA-N, > 100 µM (inactive); in the experiment on IGROV-1, > 100 µM (inactive); with HCT-15, above 100 µM.

As to `Brc1ccc2c(c1)-c1nc3c(cc1CC2)CCc1ccc(Br)cc1-3`, the GI50 in the experiment with MDA-MB-231, in the experiment on CAKI-1, in the experiment on NCI-H23, in the experiment on A549, with OVCAR-5 and in the experiment on A498 was > 100 µM (inactive) each time. Moreover, the GI50 was > 100 µM (inactive) with Malme-3M; 22.6 µM (inactive) in the experiment on K562; > 100 µM (inactive) in the experiment on LOX IMVI; > 100 µM (inactive) in the experiment with COLO 205; > 100 µM (inactive) in the experiment with NCI-H460; > 100 µM (inactive) in the experiment on MCF7. The GI50 is > 100 µM (inactive) in the experiment with MDA-MB-435; > 100 µM (inactive) in the experiment with SK-MEL-5; > 100 µM (inactive) with MDA-N; > 100 µM (inactive) in the experiment with IGROV-1; above 100 µM in the experiment on HCT-15; > 100 µM (inactive) in the experiment with SF-268.

In the case of `COC(=O)C1=C(C(=O)OC)C(Cc2ccccc2)(OO)OC1=O` (stereo not given), the GI50 is 28.2 µM (inactive) with MDA-MB-231; 4.82 µM (inactive) in the experiment on CAKI-1; 12.7 µM (inactive) in the experiment with NCI-H23; 27.4 µM (inactive) in the experiment on A549; 18.8 µM (inactive) in the experiment with OVCAR-5; 6.22 µM (inactive) in the experiment on Malme-3M. For the same compound, the GI50 is 2.7 µM (inactive) with K562; 0.964 µM (active) in the experiment on HL-60; 3.59 µM (inactive) with LOX IMVI; 7.19 µM (inactive) in the experiment on COLO 205; 36.2 µM (inactive) in the experiment with NCI-H460; 3.78 µM (inactive) in the experiment on MCF7. The GI50 in the experiment on MDA-MB-435 was 3.52 µM (inactive); in the experiment on SK-MEL-5, 4.26 µM (inactive); in the experiment with MDA-N, 4.03 µM (inactive); in the experiment with IGROV-1 it was 4.65 µM (inactive); in the experiment on HCT-15, 3.21 µM.

Turning to `CC1=C2CC(C)(C)CC(=O)C2(C)CCC1=O` (stereo not given), the GI50 with MDA-MB-231, with CAKI-1, with NCI-H23, in the experiment on A549, with OVCAR-5 and with Malme-3M was > 100 µM (inactive) throughout. Moreover, the GI50 in the experiment on K562, in the experiment with Hs-578T, with HL-60, with LOX IMVI, in the experiment on COLO 205 and with NCI-H460 was > 100 µM (inactive) in each case. In addition, the GI50 in the experiment on MCF7 is > 100 µM (inactive); in the experiment with SK-MEL-5 it was > 100 µM (inactive); in the experiment on MDA-N it was > 100 µM (inactive); in the experiment with IGROV-1 it was > 100 µM (inactive); in the experiment on HCT-15 it was above 100 µM; in the experiment with SF-268, > 100 µM (inactive).

In the case of `CC(=O)OCC1OC(n2c3c(cc(C#N)c2=S)CCCCCC3)C(OC(C)=O)C(OC(C)=O)C1OC(C)=O` (stereo not given), the GI50 is > 100 µM (inactive) in the experiment on MDA-MB-231; > 10 µM (inactive) with CAKI-1; > 100 µM (inactive) with NCI-H23; > 100 µM (inactive) in the experiment with A549; > 100 µM (inactive) in the experiment on OVCAR-5; > 100 µM (inactive) in the experiment with A498. Besides, the GI50 in the experiment with Malme-3M is > 100 µM (inactive); in the experiment with K562, 32.1 µM (inactive); with Hs-578T, 97.9 µM (inactive); with HL-60 it was 36.2 µM (inactive); in the experiment on LOX IMVI, 21.5 µM (inactive); with COLO 205 it was 84.1 µM (inactive). Besides, the GI50 with NCI-H460 was 42.2 µM (inactive); in the experiment with MCF7, > 100 µM (inactive); in the experiment with MDA-MB-435 it was > 100 µM (inactive); with SK-MEL-5, 72.1 µM (inactive); in the experiment on IGROV-1, > 100 µM (inactive); in the experiment with HCT-15, 97.5 µM. Further, the GI50 in the experiment on SF-268 is > 100 µM (inactive).

Consider `O=c1[nH]cc(NCCCl)c(=O)[nH]1`, for which the GI50 with MDA-MB-231, with CAKI-1, in the experiment with NCI-H23, in the experiment with A549, in the experiment on OVCAR-5 and in the experiment with A498 was > 100 µM (inactive) in each case. The GI50 in the experiment on Malme-3M, in the experiment with K562, in the experiment on LOX IMVI, in the experiment on COLO 205, in the experiment on NCI-H460 and in the experiment with MCF7 was > 100 µM (inactive) each time. For the same compound, the GI50 with MDA-MB-435 was > 100 µM (inactive); in the experiment on SK-MEL-5, > 100 µM (inactive); in the experiment on MDA-N, > 100 µM (inactive); in the experiment on IGROV-1, > 100 µM (inactive); in the experiment with HCT-15, above 100 µM; with SF-268 it was > 100 µM (inactive).

For `CCN(CC)CCCNC(=O)c1cc2cc(NC(=O)c3cc4cc([N+](=O)[O-])ccc4[nH]3)ccc2[nH]1`, the GI50 with MDA-MB-231 was 54 µM (inactive); in the experiment with CAKI-1, > 100 µM (inactive); in the experiment on NCI-H23, > 100 µM (inactive); in the experiment on A549 it was > 100 µM (inactive); with OVCAR-5, > 100 µM (inactive); with A498, 27.4 µM (inactive). Also, the GI50 with K562 is > 100 µM (inactive); with COLO 205, > 100 µM (inactive); with NCI-H460 it was > 100 µM (inactive); with MCF7, 48.1 µM (inactive); with MDA-MB-435, 51.1 µM (inactive); in the experiment on SK-MEL-5 it was > 100 µM (inactive). In addition, the GI50 in the experiment with MDA-N was 70.1 µM (inactive); with IGROV-1, > 100 µM (inactive); in the experiment on HCT-15, above 100 µM; in the experiment on SF-268, > 100 µM (inactive).

`O=c1c2cc(I)ccc2nc(-c2cccs2)n1-c1ccc(O)cc1`: the GI50 is 17.1 µM (inactive) in the experiment on CAKI-1; 16.7 µM (inactive) in the experiment with NCI-H23; 10.2 µM (inactive) in the experiment on A549; 15.5 µM (inactive) in the experiment with OVCAR-5; 5.4 µM (inactive) in the experiment with Malme-3M; 24.2 µM (inactive) in the experiment with K562. The GI50 in the experiment on HL-60 is 7.82 µM (inactive); in the experiment with LOX IMVI, 11.6 µM (inactive); with COLO 205 it was 17.2 µM (inactive); with NCI-H460, 14.9 µM (inactive); in the experiment with MCF7, 11.5 µM (inactive); in the experiment with MDA-MB-435 it was 12 µM (inactive). The GI50 was 11.6 µM (inactive) in the experiment on SK-MEL-5; 14.6 µM (inactive) in the experiment on MDA-N; 13.5 µM (inactive) with IGROV-1; 12.4 µM with HCT-15; 14.1 µM (inactive) with SF-268.

Turning to `C(=N\c1ccc2c(c1)Cc1ccccc1-2)/c1ccccn1`, the GI50 is 68.2 µM (inactive) with MDA-MB-231; > 100 µM (inactive) with CAKI-1; 74.8 µM (inactive) in the experiment on NCI-H23; > 100 µM (inactive) with A549; > 100 µM (inactive) in the experiment on OVCAR-5; 44.3 µM (inactive) with A498. In addition, the GI50 in the experiment with Malme-3M was > 100 µM (inactive); in the experiment on K562 it was 30.9 µM (inactive); with Hs-578T, 92.3 µM (inactive); in the experiment on LOX IMVI, 57.1 µM (inactive); in the experiment on NCI-H460 it was 60.3 µM (inactive); in the experiment with MDA-MB-435, 77.8 µM (inactive). In addition, the GI50 in the experiment on SK-MEL-5 was 61.5 µM (inactive); in the experiment with MDA-N, 28.9 µM (inactive); in the experiment on IGROV-1, > 100 µM (inactive); in the experiment on HCT-15, 48.3 µM; in the experiment with SF-268, 76.4 µM (inactive).

Consider `CCN(CC)CCCOc1cc2c(cc1OC)C(=O)N1CCC[C@H]1C=N2`, for which the GI50 was 24.2 µM (inactive) with MDA-MB-231; 18.2 µM (inactive) in the experiment on CAKI-1; > 100 µM (inactive) in the experiment on A549; 49.8 µM (inactive) with OVCAR-5; 29.6 µM (inactive) in the experiment on A498; 42.5 µM (inactive) in the experiment on Malme-3M. Moreover, the GI50 in the experiment on K562 is 37.5 µM (inactive); in the experiment on Hs-578T, 71.1 µM (inactive); with HL-60, 30.1 µM (inactive); in the experiment on LOX IMVI, 16.4 µM (inactive); with COLO 205 it was 19.8 µM (inactive); in the experiment on NCI-H460 it was 97.7 µM (inactive). The GI50 with MCF7 is 43 µM (inactive); with MDA-MB-435, 22.5 µM (inactive); in the experiment on SK-MEL-5, 19.6 µM (inactive); in the experiment on HCT-15, 41.5 µM; with SF-268, 41.4 µM (inactive).
